Entries after “also recorded” stand apart in the source; their conditions may differ.

We go through two compounds from patent publication US20260374792A1, “PHENYL-FREE BISCATIONIC QUATERNARY PHOSPHONIUM COMPOUNDS AS ANTIMICROBIAL AGENTS” (priority 2022, published 2026).

One experiment has as its system HA-MRSA. Kind of experiment: MBEC, biofilm eradication, HA-MRSA. It counts as cell-based, Staphylococcus aureus. The note with it: 24 hours, 37 °C, TSB. How it is done: A regrowth assay was used to establish the MBEC of a compound to evaluate the antibiofilm activity.
Biofilm eradication experiments were performed using a pegged-lid microtiter plate assay to determine the MBEC values for compounds of interest, as previously described. […] Sci. Rep. 2017, 7, 2003; and Raval, Y. S., Flurin, L., Mohamed, A., Greenwood-Quaintance, K. E., Beyenal, H., & Patel, R. In Vitro Activity of Hydrogen Peroxide and Hypochlorous Acid Generated by Electrochemical Scaffolds Against Planktonic and Biofilm Bacteria. Antimicrob Agents Chemother. 2021, 65, e01966-20. Briefly, […] of mid-log phase culture diluted to ca. 10^6 CFU/mL in tryptic soy broth (TSB) was added to wells of plat-bottom 96-well plates (Thermo Scientific, 266120) and covered with 96-pegged lid (Thermo Scientific, 445497). Plates were incubated to establish bacterial biofilms after incubation at 37 °C for 24 hours. The pegged lid was then removed, washed with PBS, and transferred to another 96-well plate containing 2-fold serial dilutions of the test compounds (the “challenge plate”). The total volume in each well was […], comprising of […] of compound diluted in water/DMSO, with a starting DMSO concentration of 2.5%, and […] of TSB. Plates were incubated statically at 37 °C for 24 hours. Next, the pegged lids were transferred to a fresh 96-well plate containing […] of TSB and incubated overnight at 37 °C. MBEC values were determined as the lowest test concentration that resulted eradicated biofilm (i.e., wells displaying no turbidity in the final plate).

The next experiment relates to E. coli (MC4100). Kind of experiment: MIC against E. coli. The note with it: Escherichia coli, 72 hours, 37 °C. The class given is cell-based. How it is done: (§1) The term “minimum inhibitory concentration (MIC)” means the lowest concentration of an antimicrobial agent that will inhibit the visible growth of a microorganism after overnight incubation. MIC values against bacteria, for example, the Gram-positive Staphylococcus aureus and Enterococcus faecalis and the Gram-negative Escherichia coli and Pseudomonas aeruginosa were determined by standard methods. See also P. A. Wayne, Methods for Dilution Antimicrobial Tests for Bacteria that Grow Aerobically; Approved Standard, Ninth Edition, 2012, CLSI Document M07-A9, Vol. 32 No. 2.
(§2) Biological testing procedures were adapted from prior work by Melander and coworkers. For all biological assays, laboratory strains of methicillin-susceptible Staphylococcus aureus MSSA (SH1000), Staphylococcus aureus CA-MRSA (USA300-0114), Staphylococcus aureus HA-MRSA (ATCC 33591), Escherichia coli (MC4100), Enterococcus faecalis (OG1RF), Acinetobacter baumannii (ATCC 17978), were grown with shaking at 37 °C overnight from freezer stocks in 5 mL of the indicated media: SH1000, OG1RF, MC4100, USA300-0114, and ATCC 17978 were grown in BDTM Mueller-Hinton broth (MHB), whereas ATCC 33591 was grown in BDTM tryptic soy broth (TSB). The inoculum were then streaked onto Mueller-Hinton agar (MHA) plates and grown overnight at 37 °C. From the plates, single colonies were selected, diluted into 50 mL of fresh media and grown overnight at 37 °C with shaking for use in the MIC assays. Optical density (OD) measurements were obtained using a SpectraMax iD3 plate reader (Molecular Devices, United States).
(§3) Compounds were serially diluted two-fold from stock solutions (1.0 mM) to yield twelve 100 μL test concentrations, wherein the starting concentration of dimethyl sulfoxide (DMSO) was 2.5%. Overnight S. aureus, E. faecalis, E. coli, A. baumannii, USA300-0114 (CA-MRSA), and ATCC 33591 (HA-MRSA) cultures were diluted to ca. 10^6 CFU/mL in MHB or TSB and regrown to mid-exponential phase, as determined by optical density recorded at 600 nm (OD600). All cultures were then diluted again to ca. 10^6 CFU/mL and 100 μL were inoculated into each well of a U-bottom 96-well plate (Corning, 351177) containing 100 μL of compound solution. Plates were incubated statically at 37 °C for 72 hours upon which wells were evaluated visually for bacterial growth. The MIC was determined as the lowest concentration of compound resulting in no bacterial growth visible to the naked eye, based on the highest value in three independent experiments. Aqueous DMSO controls were conducted as appropriate for each compound.
(§4) The prepared library of biscationic amphiphilic compounds was assessed for performance as antibacterial disinfectants by determining the minimum inhibitory concentration (MIC) for each against a panel of bacteria. The bacteria selected for the study were chosen to evaluate the broad spectrum antimicrobial performance of the QPCs, and therefore, included both Gram-positive and Gram-negative bacterial strains, including those with known antimicrobial resistance mechanisms. These bacteria include the Gram-positive strains of methicillin-susceptible Staphylococcus aureus [MSSA; SH1000], community-acquired methicillin-resistant Staphylococcus aureus [CA-MRSA; USA 300-0114], hospital-acquired methicillin-resistant Staphylococcus aureus [HA-MRSA; ATCC 33591] and the […], Escherichia coli [MC4100], Acinetobacter baumannii [ATCC 17498] and Pseudomonas aeruginosa [PAO1].

Another experiment concerns A. baumannii. Briefly: MIC against A. baumannii. The note with it: Acinetobacter baumannii, 72 h. It counts as cell-based. The protocol:
as §1, §2, §3, §4

In the next experiment the test system is CA-MRSA (USA300-0114). Briefly: MIC against community-acquired methicillin-resistant S. aureus (CA-MRSA). It counts as cell-based. As to conditions: Staphylococcus aureus, 72 h. The protocol: as §1, §2, §3, §4
Another experiment concerns panel of bacteria. Briefly: MIC across the panel of bacteria (Gram-positive and Gram-negative). As to conditions: over the bacterial panel. It counts as cell-based. The protocol:
as §1, §2, §3, §4

The test system of another experiment is E. faecalis (OG1RF). Briefly: MIC against E. faecalis. It counts as cell-based. As to conditions: Enterococcus faecalis, 72 h. How it is done:
as §1, §2, §3, §4

In the case of `CCCCCCCCCCCC[P+](C)(C)CC[P+](C)(C)CCCCCCCCCCC` [^MeP2P-12,12], in the experiment with HA-MRSA, the MBEC amounted to 8 µM. Further, the MIC against E. coli (MC4100) was 4 µM; against A. baumannii, 8 µM; with CA-MRSA (USA300-0114) it was 2 µM; with E. faecalis (OG1RF), 4 µM. For the same compound, in the experiment with panel of bacteria, the “antimicrobial activity / bioactivity (in words)” value is “single-digit micromolar activity; also recorded: almost identical bioactivity across the bacterial panel”.

With `CCCCCCCCCCCC[N+](C)(C)CC[N+](C)(C)CCCCCCCCCCCC` [12(2)12, reference compound], the MBEC with HA-MRSA came out at 4 µM. Besides, the MIC against E. coli (MC4100) was 2 µM; with A. baumannii it was 2 µM; in the experiment with CA-MRSA (USA300-0114), 2 µM; against E. faecalis (OG1RF), 8 µM. Besides, the “antimicrobial activity / bioactivity (in words)” value in the experiment on panel of bacteria is listed as “almost identical bioactivity across the bacterial panel”.
